# pIC50: −log10 of the molar value. Like-named read-outs stand apart in the source and are kept apart here.
# How the values were obtained:
# [1] = test system: HBeAg level (surrogate marker for cccDNA) in HepDES19 cells; assay: Engineered HepDES19 primary screen assay (HBeAg as surrogate marker for cccDNA); type: cell-based, HBV
# Text: The assay was employed to screen for novel cccDNA inhibitors. HepDES19 is a cccDNA-producing cell line. In this cell line, HBeAg in the cell culture supernatant as surrogate marker, as HBeAg production depends on cccDNA level and activity. HepDES19 is an engineered cell line which contains a 1.1 unit length HBV genome, and pgRNA transcription from the transgene is controlled by Tetracycline (Tet). In the absence of Tet, pgRNA transcription will be induced, but HBV e antigen (HBeAg) could not be produced from this pgRNA due to very short leader sequence before the HBeAg start codon and the start codon is disrupted. Only after cccDNA is formed, the missing leader sequence and start codon mutation would be restored from the 3′-terminal redundancy of pgRNA, and then HBeAg could be synthesized. Therefore, HBeAg could be used as a surrogate marker for cccDNA (Zhou, T. et al., Antiviral Res. (2006), 72(2), 116-124; Guo, H. et al., J. Virol. (2007), 81(22), 12472-12484).
# HepDES19 cells were seeded at 2×10^6 cells per T150 flask and cultured with the culture medium (Dulbecco's Modified Eagle Medium: Nutrient Mixture F-12 [DMEM-F12, Gibco Cat. 11320-82], 10% Fetal Bovine Serum [FBS, Clontech Cat. 631101], 0.1 mM Non-Essential Amino Acids Solution [NEAA, Gibco Cat. 11140-050], 50 μg/mL Penicillin-Streptomycin [PS, Invitrogen Cat. 15140-163], 500 μg/mL Geneticin [G418, Invitrogen Cat. 10131-027]) containing 3 μg/mL Tet (Sigma, Cat. 87128) for 5 days. Cells were then seeded at 4×10^6 cells per T150 in the same culture medium as described above in the absence of Tet for 8 days. Cells were then harvested and frozen at density of 2×10^6 cells per mL. For compound testing, the frozen cells were thawed and seeded into 96-well plates at a density of 6×10^4 cells per well. At 24 hrs after seeding, half log serial dilutions of compounds made with Dimethyl sulfoxide (DMSO, Sigma, Cat. D2650) were further diluted with the same culture medium as described above before they were added to the cells to reach desired final compound concentrations and 1% DMSO concentration. Plates were then incubated at 37° C. for another 5 days before measurement of HBeAg level and cell viability. Intracellular HBeAg level were measured with enzyme-linked immunosorbent assay (ELISA) kit (Shanghai Kehua Diagnostic Medical Products Co., Ltd). Cell viability was assessed using Cell Counting Kit-8 (Donjindo, Cat. CK04-20). IC50 values were derived from the dose-response curve using 4 parameter logistic curve fit method.
# The compounds of the present invention were tested for their capacity to inhibit extracellular HBeAg level as described herein.
# [2] = test system: HBV in primary human hepatocytes (PHH); assay: Cryopreserved primary human hepatocytes (PHH) HBV infection assay; type: cell-based; settings: HBV-infected cryopreserved PHH, 9 days post-compound treatment
# Experimental: This assay is used to confirm the anti-HBV effect of the compounds in HBV PHH infection assay. Cryopreserved PHH (BioreclamationIVT, Lot YJM) was thawed at 37° C. and gently transferred into pre-warmed InVitroGRO HT medium (BioreclamationIVT, Cat. S03317). The mixture was centrifuged at 70 relative centrifugal force (RCF) for 3 minutes at RT, and the supernatant was discarded. Pre-warmed InVitroGRO CP medium (BioreclamationIVT, Cat #S03316) was added to the cell pellet to gently re-suspend cells. The cells were seeded at the density of 5.8×10^4 cells per well to collagen I coated 96-well plate (Gibco, Cat. A1142803) with the InVitroGRO CP medium. All plates were incubated at 37° C. with 5% CO2 and 85% humidity.
# At 20 hours after plating, the medium was changed to PHH culture medium (Dulbecco's Modified Eagle Medium (DMEM)/F12 (1:1) (Gibco, Cat. 11320-033), 10% fetal bovine serum (Gibco Cat. 10099141), 100 U/mL penicillin, 100 μg/mL streptomycin (Gibco, Cat. 151401-122), 5 ng/mL human epidermal growth factor (Invitrogen Cat. PHG0311L), 20 ng/mL dexamethasone (Sigma, Cat. D4902) and 250 ng/mL human recombinant insulin (Gibco, Cat. 12585-014)). And the cells were incubated at 37° C. with 5% CO2 and 85% humidity for 4 hours. The medium was then changed to pre-warmed PHH culture medium containing 4% polyethylene glycol (PEG) MW8000 (Sigma, Cat. P1458-50ML) and 1% DMSO (Sigma, Cat. D2650). 5.8×10^6 genomic equivalents of HBV were added into the medium.
# At 24 hours post-infection, the cells were gently washed with PBS and refreshed with PHH culture medium supplemented with 1% DMSO, and 0.25 mg/mL Matrix gel (Corning, Cat. 356237) at 200 μL per well. All plates were immediately placed in at 37° C. CO2 incubator.
# 24 hours later, serial dilutions of compounds made with DMSO were further diluted with the same culture medium (PHH culture medium supplemented with 1% DMSO and 0.25 mg/mL Matrix gel as described above) before they were added to the cells to reach desired final compound concentrations and 1% DMSO concentration. The medium containing the compounds were refreshed every three days.
# At 9 days post-compound treatment, extracellular HBsAg level were measured with Chemiluminescence Immuno Assay (CLIA) kit (Autobio, HBsAg Quantitative CLIA). Extracellular HBV DNA was extracted by MagNA Pure 96 system (Roche) and then determined by quantitative PCR with the following primers and probe: […]
# HBsAg IC50 and HBV DNA IC50 values were derived from the dose-response curve using 4 parameter logistic curve fit method. The compounds of formula (I) have HBsAg IC50<20 μM, particularly <1 μM; and HBV DNA IC50<50 μM. Test results of the compounds of this invention as well as the reference compounds in Cryopreserved PHH assay are given in Table 2 and Table 3.
# [3] = read-out: IC50 (HBeAg) in HepDES19 primary screen assay, HepDES19 cells, 5 days incubation with compound, HBeAg by ELISA
# [4] = extracellular HBsAg by CLIA, read-out: HBsAg IC50
# [5] = Hepatitis B virus, Hepatocyte, 216 h, extracellular HBsAg by CLIA, read-out: HBsAg IC50
# [6] = Hepatitis B virus, HepDES19, 120 h, read-out: IC50 (HBeAg) in HepDES19 primary screen assay, HepDES19 cells, 5 days incubation with compound, HBeAg by ELISA
Structure (SMILES),"pIC50 [1, 3]","pIC50 [2, 4]","pIC50 [2, 5]","pIC50 [1, 6]","pIC50 ([2]; Hepatitis B virus, Hepatocyte, 216 h, extracellular HBV DNA by quantitative PCR, read-out: HBV DNA IC50)"
"CCOC(=O)C1CC1OCCOc1ccc(-c2cc(=O)c3cccc(Cl)c3o2)cc1 (single isomer, unassigned) [Example 4-A, ethyl 2-[2-[4-(8-chloro-4-oxo-chromen-2-yl)phenoxy]ethoxy]cyclopropanecarboxylate]",6.28,5.20,–,–,–
"CCOC(=O)C1CC1OCCOc1ccc(-c2cc(=O)c3cccc(Cl)c3o2)cc1 (single isomer, unassigned) [Example 4-B, ethyl 2-[2-[4-(8-chloro-4-oxo-chromen-2-yl)phenoxy]ethoxy]cyclopropanecarboxylate]",5.28,6.29,–,–,–
"O=C(O)[C@H]1C[C@H]1OCCOc1ccc(-c2cc(=O)c3cccc(Cl)c3o2)cc1 (single isomer, unassigned) [Example 5-B, 2-[2-[4-(8-chloro-4-oxo-chromen-2-yl)phenoxy]ethoxy]cyclopropanecarboxylic acid]",4.95,–,5.75,–,–
"N#Cc1ccc2c(=O)cc(-c3ccc(OCCOC4CC(C(=O)O)C4)cc3)oc2c1Cl (single isomer, unassigned) [Example 23-B, 3-[2-[4-(8-chloro-7-cyano-4-oxo-chromen-2-yl)phenoxy]ethoxy]cyclobutanecarboxylic acid]",–,–,5.16,–,–
"O=c1cc(-c2ccc(OCCO[C@H]3C[C@@H](C(=O)O)C3)nc2)oc2c(Cl)cccc12 (single isomer, unassigned) [Example 38-A, 3-[2-[[5-(8-chloro-4-oxo-chromen-2-yl)-2-pyridyl]oxy]ethoxy]cyclobutanecarboxylic acid]",5.28,–,6.34,–,–
"O=c1cc(-c2ccc(OCCO[C@H]3C[C@@H](C(=O)O)C3)nc2)oc2c(Cl)cccc12 (single isomer, unassigned) [Example 38-B, 3-[2-[[5-(8-chloro-4-oxo-chromen-2-yl)-2-pyridyl]oxy]ethoxy]cyclobutanecarboxylic acid]",6.12,6.06,–,–,–
"COC(=O)C1CC(OCCOc2ccc(-c3oc4c(Cl)cc(F)cc4c(=O)c3OC(F)(F)F)cc2)C1 (single isomer, unassigned) [Example 62-A, methyl 3-[2-[4-[8-chloro-6-fluoro-4-oxo-3-(trifluoromethoxy)chromen-2-yl]phenoxy]ethoxy]cyclobutanecarboxylate]",–,–,5.37,5.99,–
"O=C(O)C1CC(OCCOc2ccc(-c3cc(=O)c4cc(C(F)(F)F)cc(Cl)c4o3)cc2)C1 (single isomer, unassigned) [Example 66-B, 3-[2-[4-[8-chloro-4-oxo-6-(trifluoromethyl)chromen-2-yl]phenoxy]ethoxy]cyclobutanecarboxylic acid]",–,–,5.32,4.88,–
"O=C(O)C1CC(OCCOc2ccc(-c3cc(=O)c4ccc(C5CC5)c(Cl)c4o3)cc2)C1 (single isomer, unassigned) [Example 70-B, 3-[2-[4-(8-chloro-7-cyclopropyl-4-oxo-chromen-2-yl)phenoxy]ethoxy]cyclobutanecarboxylic acid]",5.67,–,5.32,–,–
"O=c1cc(-c2ccc(OCCO[C@H]3C[C@@H](C(=O)O)C3)cc2)oc2c(Cl)cccc12 [Example 1-A, cis-3-[2-[4-(8-chloro-4-oxo-chromen-2-yl)phenoxy]ethoxy]cyclobutanecarboxylic acid]",–,–,6.14,6.85,–
"O=c1cc(-c2ccc(OCCO[C@H]3C[C@H](C(=O)O)C3)cc2)oc2c(Cl)cccc12 [Example 1-B, trans-3-[2-[4-(8-chloro-4-oxo-chromen-2-yl)phenoxy]ethoxy]cyclobutanecarboxylic acid]",–,–,7.10,6.85,–
"CCOC(=O)C1CC(OCCOc2ccc(-c3cc(=O)c4cccc(Cl)c4o3)cc2)C1 (stereo not drawn) [Example 2, Ethyl 3-[2-[4-(8-chloro-4-oxo-chromen-2-yl)phenoxy]ethoxy]cyclobutanecarboxylate]",–,–,6.72,5.61,–
"O=C(O)c1cccc(OCCOc2ccc(-c3cc(=O)c4cccc(Cl)c4o3)cc2)c1 [Example 3, 3-[2-[4-(8-chloro-4-oxo-chromen-2-yl)phenoxy]ethoxy]benzoic acid]",–,–,4.90,6.82,4.45
"O=C(O)C1CCC(OCCOc2ccc(-c3cc(=O)c4cccc(Cl)c4o3)cc2)C1 (stereo not drawn) [Example 6, 3-[2-[4-(8-chloro-4-oxo-chromen-2-yl)phenoxy]ethoxy]cyclopentanecarboxylic acid]",–,–,6.07,5.71,–
"O=C(O)COC1CC(COc2ccc(-c3cc(=O)c4cccc(Cl)c4o3)cc2)C1 (stereo not drawn) [Example 8, 2-[3-[[4-(8-chloro-4-oxo-chromen-2-yl)phenoxy]methyl]cyclobutoxy]acetic acid]",–,–,6.92,5.87,–
"O=C(O)CCOCCOc1ccc(-c2cc(=O)c3cccc(Cl)c3o2)cc1 [Example 10, 3-[2-[4-(8-chloro-4-oxo-chromen-2-yl)phenoxy]ethoxy]propanoic acid]",–,–,5.57,6.10,–
"CC(C)(COCCOc1ccc(-c2cc(=O)c3cccc(Cl)c3o2)cc1)C(=O)O [Example 11, 3-[2-[4-(8-chloro-4-oxo-chromen-2-yl)phenoxy]ethoxy]-2,2-dimethyl-propanoic acid]",–,–,4.90,6.24,–
"CC(COc1ccc(-c2cc(=O)c3cccc(Cl)c3o2)cc1)OC1CC(C(=O)O)C1 (stereo not drawn) [Example 12, 3-[2-[4-(8-chloro-4-oxo-chromen-2-yl)phenoxy]-1-methyl-ethoxy]cyclobutanecarboxylic acid]",–,–,6.68,5.97,–
